Data as given in PMC4131897 (Biochemistry, 2014).

Target: T1, BjPutA (proline utilization A) (Bradyrhizobium diazoefficiens, UniProt Q89E26, D779W)
T1 sequence (Q89E26 1-999 D779W): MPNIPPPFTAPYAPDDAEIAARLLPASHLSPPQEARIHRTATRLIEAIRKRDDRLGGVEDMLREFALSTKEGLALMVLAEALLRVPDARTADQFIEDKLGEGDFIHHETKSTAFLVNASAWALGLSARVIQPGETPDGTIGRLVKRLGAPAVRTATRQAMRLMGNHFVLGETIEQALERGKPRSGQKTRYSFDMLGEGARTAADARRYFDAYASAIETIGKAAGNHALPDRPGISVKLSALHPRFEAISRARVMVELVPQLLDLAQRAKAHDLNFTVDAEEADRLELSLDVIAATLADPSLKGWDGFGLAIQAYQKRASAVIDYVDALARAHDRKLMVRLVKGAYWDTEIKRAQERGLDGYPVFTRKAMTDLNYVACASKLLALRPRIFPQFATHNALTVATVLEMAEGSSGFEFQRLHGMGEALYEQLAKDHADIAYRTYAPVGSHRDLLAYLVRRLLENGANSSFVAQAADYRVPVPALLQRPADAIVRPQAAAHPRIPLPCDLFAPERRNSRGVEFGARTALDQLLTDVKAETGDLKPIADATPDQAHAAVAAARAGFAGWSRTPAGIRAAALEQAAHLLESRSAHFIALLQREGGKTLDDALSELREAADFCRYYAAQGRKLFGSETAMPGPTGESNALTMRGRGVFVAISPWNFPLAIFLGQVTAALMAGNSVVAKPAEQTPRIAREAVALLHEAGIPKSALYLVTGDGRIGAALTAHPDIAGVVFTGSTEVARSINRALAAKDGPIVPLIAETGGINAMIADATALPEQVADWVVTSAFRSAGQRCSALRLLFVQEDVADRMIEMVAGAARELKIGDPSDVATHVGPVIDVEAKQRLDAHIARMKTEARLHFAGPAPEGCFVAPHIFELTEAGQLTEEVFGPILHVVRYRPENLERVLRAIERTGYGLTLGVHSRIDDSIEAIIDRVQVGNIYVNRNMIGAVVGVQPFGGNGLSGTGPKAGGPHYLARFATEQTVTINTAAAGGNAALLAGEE
Assay: intrinsic tryptophan fluorescence quenching
Type: binding

NC(=O)c1ccc[n+]([C@@H]2O[C@H](COP(=O)(O)OP(=O)(O)OC[C@H]3O[C@@H](n4cnc5c(N)ncnc54)[C@H](O)[C@@H]3O)[C@@H](O)[C@H]2O)c1 [NAD^+]
Kd: 780 ± 50 nM
